Reference: patent US20220332700A1, “NOVEL APOPTOSIS SIGNAL-REGULATING KINASE 1 INHIBITORS” (MANKIND PHARMA LTD, priority 2019, published 2022)

Key:
recombinant ASK1 = molecular target: T1, recombinant ASK1 (Homo sapiens, UniProt Q99683); test: ASK1 Biochemical Assay (HTRF KinEASE-STK S3); conditions: ATP 100 μM; read-out: Biochemical Assay IC50
T1 construct: purchased Carna Biosciences
Protocol: ASK1 biochemical assay was standardized using recombinant ASK1 (Carna Biosciences), substrate and detection reagents from Cisbio HRTF KinEASE-STK S3 kit. Enzyme concentration, ATP, biotinylated STK substrate and STK antibodies were titrated for enzyme assay. Assay was carried out in ASK1 kinase buffer, 10 mM MOPS pH-7, 10 mM Mg-acetate, 1 mM DTT, 0.025% NP40, 1.5% glycerol and 0.05% BSA. DMSO was used as vehicle control with a final concentration of 1%. A 5 ng of ASK1 enzyme was incubated with compound for 1 hour at 23° C. on a shaker at 100rpm. ATP and biotin substrate was added at a final concentration of 100 μM and 1 μM and incubated for 3 hours at 23° C. on a shaker at 100rpm. […] Delta F ratios were calculated from data obtained at excitation (337 nm) and emission wavelengths (665 nm and 620-10 nm). Substrate blank values was considered as negative control. Values from negative control was substrated from vehicle control and compound treated wells. Enzyme inhibition by compounds were calculated from vehicle controls, which represent uninterrupted enzyme's activity.

Human ASK1 = molecular target: T2, Human ASK1 (Homo sapiens, UniProt Q99683); test: ASK1 Cell Based Assay (phospho p38 read out in hASK1 transfected HEK293T-AP1 cells); conditions: HEK293T-AP1 cells, 1 mM hydrogen peroxide, phospho p38; read-out: Cell Based Assay IC50
T2 construct: expressed in transfected cells; host or cells: HEK293T-AP1
T2 sequence (Q99683 1-1374): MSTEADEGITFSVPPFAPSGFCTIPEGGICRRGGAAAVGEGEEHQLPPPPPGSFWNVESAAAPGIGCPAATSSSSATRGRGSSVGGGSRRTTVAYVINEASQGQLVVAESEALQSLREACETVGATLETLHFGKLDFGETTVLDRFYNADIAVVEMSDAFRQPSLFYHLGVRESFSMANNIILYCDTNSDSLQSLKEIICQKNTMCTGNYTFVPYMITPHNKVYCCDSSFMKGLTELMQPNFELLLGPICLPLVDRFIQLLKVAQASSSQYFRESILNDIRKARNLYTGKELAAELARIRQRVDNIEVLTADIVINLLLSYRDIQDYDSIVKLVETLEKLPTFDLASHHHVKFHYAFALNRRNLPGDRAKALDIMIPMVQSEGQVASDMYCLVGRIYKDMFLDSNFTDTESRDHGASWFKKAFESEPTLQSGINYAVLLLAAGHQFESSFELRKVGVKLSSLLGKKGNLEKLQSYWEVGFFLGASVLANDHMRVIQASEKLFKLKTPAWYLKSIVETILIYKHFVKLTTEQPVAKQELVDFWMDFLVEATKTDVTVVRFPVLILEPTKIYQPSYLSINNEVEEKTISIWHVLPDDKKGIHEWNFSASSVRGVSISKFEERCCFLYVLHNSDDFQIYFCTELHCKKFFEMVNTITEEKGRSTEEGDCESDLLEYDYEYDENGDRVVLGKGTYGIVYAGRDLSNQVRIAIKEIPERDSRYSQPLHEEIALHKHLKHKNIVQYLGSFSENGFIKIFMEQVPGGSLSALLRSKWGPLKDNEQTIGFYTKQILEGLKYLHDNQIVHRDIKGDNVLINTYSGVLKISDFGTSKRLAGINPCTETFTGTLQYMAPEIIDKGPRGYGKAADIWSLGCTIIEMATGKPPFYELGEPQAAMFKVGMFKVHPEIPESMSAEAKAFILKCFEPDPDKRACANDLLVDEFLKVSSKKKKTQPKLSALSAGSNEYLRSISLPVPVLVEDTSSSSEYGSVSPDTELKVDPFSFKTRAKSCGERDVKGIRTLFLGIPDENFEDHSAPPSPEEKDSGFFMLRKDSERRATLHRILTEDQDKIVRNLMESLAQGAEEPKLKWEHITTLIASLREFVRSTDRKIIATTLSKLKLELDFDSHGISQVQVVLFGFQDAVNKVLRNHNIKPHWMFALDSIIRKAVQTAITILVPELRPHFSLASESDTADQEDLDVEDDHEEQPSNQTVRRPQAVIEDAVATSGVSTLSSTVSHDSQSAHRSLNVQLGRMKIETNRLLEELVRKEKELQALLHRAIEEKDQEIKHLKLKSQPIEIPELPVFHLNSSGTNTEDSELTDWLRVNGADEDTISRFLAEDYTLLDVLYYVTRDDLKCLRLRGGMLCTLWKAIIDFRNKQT
Protocol: HEK293T-AP1 cells were seeded at a density of 20,000 cells per well in a poly-d-lysine coated 96 well microplate. Next day, cells were transfected with hASK1-pcDNA3.1 vector using lipofectamine 3000. After 24 hours of transfection, cells were treated with compounds for 24 hours in assay medium. DMSO was used as a vehicle control with a final DMSO concentration of 0.2%. On 4th day, medium was discarded and cells were activated with 1 mM hydrogen peroxide for 1 hour in the presence of compounds. Cells were lysed for 1 hour with 1× lysis buffer on a shaker at 100 rpm. Sixteen microliters of lysate was collected into a 384 well small volume plate. Phospho p38 levels in the lysate was detected by using CisbioPhospho-p38 MAPK (Thr180/Tyr182) #64P38PEG.Four microliters of phospho p38 antibodies labelled with europium cryptate and d2 acceptor, were added to the lysate and incubated overnight. TR-FRET was measured at an excitation of 335 nm and emission was measured at 615 nm and 665 nm in BMG FLUOstar multimode reader.
Compounds were assessed for ASK1 inhibition based on phospho p38 read out. […] Background control values were susbtracted from vehicle control as well as from compound treated wells.

IC50 (recombinant ASK1) | IC50 (Human ASK1) | SMILES
< 100 nM | > 100 nM | CNC(=O)N1CCN(c2ccc(N3CCN(c4cccc(-c5nncn5C(C)C)n4)C3=O)cc2)CC1 [Example 1136, 4-(4-(3-(6-(4-isopropyl-4H-1,2,4-triazol-3-yl)pyridin-2-yl)-2-oxoimidazolidin-1-yl)phenyl)-N-methylpiperazine-1-carboxamide]
< 100 nM | > 1000 nM | CC(C)n1cnnc1-c1cccc(N2CCN(c3ccc(NC4CCOC4)cc3)C2=O)n1 (stereo not shown) [Example 1133, 1-(6-(4-isopropyl-4H-1,2,4-triazol-3-yl)pyridin-2-yl)-3-(4-(tetrahydrofuran-3-ylamino)phenyl)imidazolidin-2-one]
< 100 nM | > 100 nM | CC(C)n1cnnc1-c1cccc(N2CCN(c3ccc(N(C)C)nc3)C2=O)n1 [Example 1105, 1-(6-(dimethylamino)pyridin-3-yl)-3-(6-(4-isopropyl-4H-1,2,4-triazol-3-yl)pyridin-2-yl)imidazolidin-2-one]
< 100 nM | > 1000 nM | CC(C)n1cnnc1-c1cccc(N2CCN(c3ccc4c(c3)C(C)(C)CS4(=O)=O)C2=O)n1 [Example 1124, 1-(3,3-dimethyl-1,1-dioxido-2,3-dihydrobenzo[b]thiophen-5-yl)-3-(6-(4-isopropyl-4H-1,2,4-triazol-3-yl)pyridin-2-yl)imidazolidin-2-one]
< 100 nM | > 1000 nM | CC(C)C(C#N)C1CN(c2ccc(N3CCN(c4cccc(-c5nncn5C(C)C)n4)C3=O)cc2)C1 (stereo not shown) [Example 1134, 2-(1-(4-(3-(6-(4-isopropyl-4H-1,2,4-triazol-3-yl)pyridin-2-yl)-2-oxoimidazolidin-1-yl)phenyl)azetidin-3-yl)-3-methylbutanenitrile]
< 100 nM | > 1000 nM | CC(C)n1cnnc1-c1cccc(N2CCN(c3ccc(C(C#N)N4CCOCC4)cc3)C2=O)n1 (stereo not shown) [Example 1098, 2-(4-(3-(6-(4-isopropyl-4H-1,2,4-triazol-3-yl)pyridin-2-yl)-2-oxoimidazolidin-1-yl)phenyl)-2-morpholinoacetonitrile]
< 100 nM | > 1000 nM | CNC(=O)c1ccc(N2CCN(c3cccc(-c4nncn4C(C)C)n3)C2=O)cn1 [Example 1106, 5-(3-(6-(4-isopropyl-4H-1,2,4-triazol-3-yl)pyridin-2-yl)-2-oxoimidazolidin-1-yl)-N-methylpyridine-2-carboxamide]
< 100 nM |  | CC(C)n1cnnc1-c1cccc(N2CCN(c3ccc(N4CCCC4)cc3)C2=O)n1 [Example 1100, 1-(6-(4-isopropyl-4H-1,2,4-triazol-3-yl)pyridin-2-yl)-3-(4-(pyrrolidin-1-yl)phenyl)imidazolidin-2-one]
< 100 nM |  | CC(C)n1cnnc1-c1cccc(N2CCN(c3cnc(S(C)(=O)=O)nc3)C2=O)n1 [Example 1102, 1-(6-(4-isopropyl-4H-1,2,4-triazol-3-yl)pyridin-2-yl)-3-(2-(methylsulfonyl)pyrimidin-5-yl)imidazolidin-2-one]

The remaining lines, values behind:

SMILES | IC50 (recombinant ASK1) | IC50 (Human ASK1)
CC(C)n1cnnc1-c1cccc(N2CCN(c3ccc(-n4cnc(C5CC5)c4)cc3)C2=O)n1 [Example 1040, 1-(4-(4-cyclopropyl-1H-imidazol-1-yl)phenyl)-3-(6-(4-isopropyl-4H-1,2,4-triazol-3-yl)pyridin-2-yl)imidazolidin-2-one] | < 100 nM | > 10000 nM
CC(C)n1cnnc1-c1cccc(N2CCN(c3ccc(N4CC(O)C4)cc3)C2=O)n1 [Example 1090, 1-(4-(3-hydroxyazetidin-1-yl)phenyl)-3-(6-(4-isopropyl-4H-1,2,4-triazol-3-yl)pyridin-2-yl)imidazolidin-2-one] | < 100 nM | > 1000 nM
CC(C)n1cnnc1-c1cccc(N2CCN(c3ccc(N4CCC(C#N)C4)cc3)C2=O)n1 (stereo not shown) [Example 1091, 1-(4-(3-(6-(4-isopropyl-4H-1,2,4-triazol-3-yl)pyridin-2-yl)-2-oxoimidazolidin-1-yl)phenyl)pyrrolidine-3-carbonitrile] | < 100 nM | > 1000 nM
CC(C)n1cnnc1-c1cccc(N2CCN(c3ccc(-n4ccnc4)cc3)C2=O)n1 [Example 1036, 1-(4-(1H-imidazol-1-yl)phenyl)-3-(6-(4-isopropyl-4H-1,2,4-triazol-3-yl)pyridin-2-yl)imidazolidin-2-one] | < 100 nM | < 1000 nM
CC(C)n1cnnc1-c1cccc(N2CCN(c3ccc(N4CCC(O)CC4)cc3)C2=O)n1 [Example 1067, 1-(4-(4-hydroxypiperidin-1-yl)phenyl)-3-(6-(4-isopropyl-4H-1,2,4-triazol-3-yl)pyridin-2-yl)imidazolidin-2-one] | < 100 nM | > 100 nM
CC(C)n1cnnc1-c1cccc(N2CCN(c3ccc(S(N)(=O)=O)cc3)C2=O)n1 [Example 1020, 4-(3-(6-(4-isopropyl-4H-1,2,4-triazol-3-yl)pyridin-2-yl)-2-oxoimidazolidin-1-yl)benzenesulfonamide] | < 100 nM | > 10000 nM
CC(C)n1cnnc1-c1cccc(N2CCN(c3ccc(N4CC5(COC5)C4)cc3)C2=O)n1 [Example 1074, 1-(4-(2-oxa-6-azaspiro[3.3]heptan-6-yl)phenyl)-3-(6-(4-isopropyl-4H-1,2,4-triazol-3-yl)pyridin-2-yl)imidazolidin-2-one] | < 100 nM | > 100 nM
CC(C)n1cnnc1-c1cccc(N2CCN(c3ccc(S(N)(=O)=O)cc3)C2=O)n1 [Example 1023, 4-(3-(6-(4-isopropyl-4H-1,2,4-triazol-3-yl)pyridin-2-yl)-2-oxoimidazolidin-1-yl)benzenesulfonamide] |  | > 1000 nM
CC1CN(c2ccc(N3CCN(c4cccc(-c5nncn5C(C)C)n4)C3=O)cc2)CCO1 (stereo not shown) [Example 1078, 1-(6-(4-isopropyl-4H-1,2,4-triazol-3-yl)pyridin-2-yl)-3-(4-(2-methylmorpholino)phenyl)imidazolidin-2-one] | < 100 nM | > 100 nM
CC(n1cnnc1-c1cccc(N2CCN(c3ccc(S(C)(=O)=O)cc3)C2=O)n1)C(F)(F)F (stereo not shown) [Example 1061, 1-(6-(4-(1,1,1-trifluoropropan-2-yl)-4H-1,2,4-triazol-3-yl)pyridin-2-yl)-3-(4-(methylsulfonyl)phenyl)imidazolidin-2-one] | < 100 nM | > 1000 nM
CC(C)n1cnnc1-c1cccc(N2CCN(c3ccc(C(=O)NC4CC4)cc3)C2=O)n1 [Example 1048, N-cyclopropyl-4-(3-(6-(4-isopropyl-4H-1,2,4-triazol-3-yl)pyridin-2-yl)-2-oxoimidazolidin-1-yl)benzamide] | < 100 nM | > 1000 nM
